# Test results as given in patent US8778915B2, “Method for the treatment of central nervous system cancers and compositions related thereto” (Emory University, priority 2010, dated 2014).
# What was measured:
# [1] = test system: glioblastoma; conditions: first study; cited from earlier work
# [2] = test system: human neuroblastoma xenograft; assay: Mouse xenograft model of human neuroblastoma; assay type: in vivo, female athymic nude mice; conditions: after 8 days of treatment
# Source text: The vehicle group received saline only. Data were normalized to the baseline values (day 1) and expressed as percent change in daily tumor growth. […] The vehicle group received saline only. Values are expressed as mean tumor size for the different animals in each group. The significance of results was set at P<0.05 two-tailed. Values are expressed as % change in Means±SEM of tumor volume in different groups. […] Tumors were allowed to grow to ˜200 to 250 mm^3 and mice were divided into groups. […] This regimen was planned to be continued for up to two weeks to examine maximum tumor burden. All treated animals are being compared to appropriate controls for analysis of rate of daily tumor growth, tumor volume and regression. Toxicity is being assessed daily by survival, activity and body weight.
# [3] = test system: human glioblastoma cell line U87dEGFR; assay: Cell viability, repeated exposure, glioblastoma-2 cells; assay type: cell-based
# Protocol: (§1) Cells were exposed to different concentrations of PROG daily for 3 days and 6 days by replacing culture medium containing PROG. The stock solution of PROG was prepared in DMSO (Final concentration: <5 μl/ml medium). Data were analyzed using analysis of variance (ANOVA) followed by Dunnett's test. Values are expressed as Means±SD of two independent experiments with duplicate samples. Significant difference *P<0.05 when compared to control values.
# [4] = test system: human neuroblastoma (SK-N-AS) cells; assay: MTT cell viability, single 48 h exposure, neuroblastoma cells; assay type: cell-based; conditions: single exposure 48 hours, at 5 μM and 10 μM, P<0.05 compared to control
# Protocol: Data were evaluated by analysis of variance (ANOVA) followed by Dunnett test for individual comparisons. […] Values were expressed as means±SD of three experiments.
# The human neuroblastoma cells (SK-N-AS) were cultured in a DMEM medium and E18 rat primary cortical neurons were cultured for 8-10 days in Neurobasal medium. […] An MTT reduction assay was used to estimate cell viability.
# [5] = test system: human glioblastoma cell line U87MG; assay: Cell viability, repeated exposure, glioblastoma-1 cells; assay type: cell-based
# Protocol: as §1
# [6] = test system: breast cancer; conditions: single injection of depot progesterone prior to breast cancer therapy, over 1000 women, 65 months after diagnosis and treatment; cited from earlier work
# [7] = test system: neuroblastoma cells; conditions: 10 μM; cited from earlier work
# [8] = test system: human neuroblastoma (SK-N-AS) cells; assay: Cell viability, repeated daily exposure for 3 and 6 days, neuroblastoma cells; assay type: cell-based; conditions: 0.1-160 μM
# Protocol: Analysis of variance (ANOVA) followed by a Dunnett test was used to compare treatment groups to controls. […] Values were expressed as means±SD of three experiments.
# FIG. 3 show the effects of PROG exposure for 3 and 6 days on the viability of Neuroblastoma cells (SK-N-AS). Cells were exposed to different concentrations of PROG (0.1, 1, 5, 10, 20, 80, 160 μM) daily for 3 days and 6 days. The statistical analysis of data was performed with analysis of variance (ANOVA) followed by Dunnett test to compare several treatment group to a single control group. The significance of results was set at P<0.05. Values are expressed as Means±SD of three experiments. Significant difference *P<0.05 when compared to control.
# [9] = test system: U87MG glioblastoma cell line; assay: Morphology of glioblastoma cells, phase contrast microscope; assay type: cell-based, human; conditions: high concentrations (40, 80 and 160 μM)
# [10] = test system: PC-12 cells; assay: Survival of PC-12 cells treated with cyclodextrin; assay type: cell-based; conditions: 48 h, very high concentration (320 uM)
# Protocol: PC-12 cells were treated with different concentrations of cyclodextrin for 48 h. The values are expressed as mean±SD of duplicate samples. This experiment was done to answer the question if any compound can kill tumor cells at high doses. B-Cyclodextrin is an inert compound and used as a vehicle for Progesterone.
# [11] = repeated exposure 3 and 6 days, high doses
compound,measurement,setting,value
"Avastin: Avastin (bevacizumab), FDA approved to treat glioblastoma at progression after standard therapy",patients who survived for at least 6 months without disease progressing,[1],43%
same,patients who survived for at least one year,[1],38%
same,patients with tumor shrinkage,[1],28%
"CC(=O)[C@H]1CC[C@H]2[C@@H]3CCC4=CC(=O)CC[C@]4(C)[C@H]3CC[C@]12C [progesterone, pregn-4-ene-3,20-dione]",reduction of rate of tumor growth compared to saline vehicle,[2]; 50 mg/kg peritumoral injection once daily,~50%
same,reduction of rate of tumor growth compared to saline vehicle,[2]; 100 mg/kg peritumoral injection once daily,~50%
same,effectiveness of six days versus 3 days of treatment,[3]; repeated exposure,more effective than 3 days
same,cell viability,[3]; [11],killed both glioblastoma cell lines in a dose dependant manner
same,cell death (MTT cell viability),[4],significant cell death
same,effectiveness of six days versus 3 days of treatment,[5]; repeated exposure,more effective than 3 days
same,cell viability,[5]; [11],killed both glioblastoma cell lines in a dose dependant manner
same,reduction of mortality,[6],more than 35%
same,cell viability,[7],significant decrease in cell viability
same,cell death,[8]; daily exposure for 3 days,significant (P<0.05) cell death in a concentration dependant manner
same,cell death,"[8]; daily exposure for 6 days, concentration dependant",cell death (P<0.05) was observed
same,changes in cell morphology,[9],"lose their original shape, become detached from the surface, and eventually die"
OC[C@H]1O[C@@H]2O[C@H]3[C@H](O)[C@@H](O)[C@@H](O[C@H]4[C@H](O)[C@@H](O)[C@@H](O[C@H]5[C@H](O)[C@@H](O)[C@@H](O[C@H]6[C@H](O)[C@@H](O)[C@@H](O[C@H]7[C@H](O)[C@@H](O)[C@@H](O[C@H]8[C@H](O)[C@@H](O)[C@@H](O[C@H]1[C@H](O)[C@H]2O)O[C@@H]8CO)O[C@@H]7CO)O[C@@H]6CO)O[C@@H]5CO)O[C@@H]4CO)O[C@@H]3CO [B-Cyclodextrin],cell death,[10],could not induce cell death
